Data reported in PMC6166661 (Neuropeptides, 2018).

Columns and labels:
[1] = tested on: isoproterenol-stimulated lipolysis; test: Acute effect on isoproterenol-stimulated lipolysis; type: in vivo, rat; settings: rats
C3aR1 = settings: ref Cianflone et al., 2003; Murray et al., 2000; cited from earlier work

Row | Compound | change of plasma palmitate concentration during infusion ([1]; constant i.v. infusion 30 ng•min^−1, vs basal) | plasma palmitate concentration at end of experiment, of the initial value ([1]; isoproterenol infusion plus saline bolus (control group)) | activity at C3aR1 (C3aR1)
1 | CC(C)NCC(O)c1ccc(O)c(O)c1 (stereo not drawn) [isoproterenol] | more than doubled | ~ 75% | –
2 | ASP: des-arginine peptide generated from C3a by cleaving the C-terminal arginine residue (R77) | – | – | inactive
